Test results as given in patent US4073900A, “11β-FLUOROPREGNENES” (Schering Aktiengesellschaft, priority 1975, dated 1978).

What was measured:
infantile female rabbits = assay: Clauberg test, progestational activity (McPhail values) after oral administration to infantile female rabbits; assay type: in vivo
Method: For the progestational effect, the McPhail values were determined in the usual Clauberg test after oral administration to infantile female rabbits. The minimum amount required to achieve a positive effect is expressed by the McPhail value of 1.5.

seminal vesicles = assay: antiandrogen test, seminal vesicle weight in testosterone propionate-treated male castrated rats; assay type: in vivo; conditions: daily dosage s.c. over 7 days, 0.1 mg testosterone propionate daily s.c., halves organ weight caused by testosterone propionate
Method: The antiandrogenic activity was tested on male castrated rats weighing about 100 g. Starting with 1 week after castration, the test compound was administered in staggered doses subcutaneously over a period of 7 days. Over the same time period, the animals received daily 0.1 mg. of testosterone propionate subcutaneously. On the eighth day, the animals were sacrificed, and the weights of the seminal vesicles were determined. As the ED50, the daily dosage was determined which reduced the organ weight caused solely by testosterone propionate to one-half.

[1] = oral, dose 0.001 mg, infantile female rabbits
[2] = oral, dose 0.003 mg, infantile female rabbits
[3] = oral, dose 0.01 mg, infantile female rabbits

Row | Structure (SMILES) | Clauberg test, comparison with compound B (infantile female rabbits; compared with the conventional compound B) | Progestational Activity, McPhail (infantile female rabbits; [1]) | Progestational Activity, McPhail (infantile female rabbits; [2]) | Progestational Activity, McPhail (infantile female rabbits; [3]) | Antiandrogenic Activity ED50 Seminal Vesicle (seminal vesicles) [mg] | threshold dose (McPhail 1.5) for the progestational activity (infantile female rabbits; oral, infantile female rabbits, minimum amount for positive effect) [mg]
1 | CC(=O)O[C@]1(C(C)=O)CC[C@H]2[C@@H]3C=C(Cl)C4=CC(=O)[C@@H]5C[C@@H]5[C@]4(C)[C@H]3[C@@H](F)C[C@@]21C [A, 17-acetoxy-6-chloro-11β-fluoro-1α,2α -methylene-4,6-pregnadiene-3,20-dione] | superior | 1.1 | 2.0 | 3.4 | 0.3 to 1.0 | 
2 | CC(=O)O[C@]1(C(C)=O)CC[C@H]2[C@@H]3C=C(Cl)C4=CC(=O)[C@@H]5C[C@@H]5[C@]4(C)[C@H]3CC[C@@]21C [B, 17-acetoxy-6-chloro-1α,2α -methylene-4,6-pregnadiene-3,20-dione, reference compound] |  | 1.0 | 1.5 | 2.9 | 0.1 to 0.3 | 0.003
